This data set has as its system glioma-initiating cells (GICs). Kind of data set: Cell survival of GICs exposed to GHB. To be noted: exposure of GICs to GHB.

For one compound, cell survival results are on record in patent US20160143867A1, “METHODS AND PHARMACEUTICAL COMPOSITIONS FOR TREATING CANCER” (INSERM (INSTITUT NATIONAL DE LA SANTÉ ET DE LA RECHERCHE …, priority 2013, published 2016).

As to `O=C(O)CCCO` [GHB, gamma-hydroxybutyrate], the cell survival entry was “without affecting cell survival”.
